In patent US20200022936A1, “COMBINATIONS OF DICLOFENAC, H2 RECEPTOR ANTAGONISTS AND ALKALI METAL BICARBONATES FOR THE TREATMENT OF PAIN AND INFLAMMATION” (priority 2017, published 2020):

Assay: in vivo
Set-up: species or system Wistar rats
Settings: male, Wistar, rat, po
Description: The primary objective of the test was to compare the pharmacokinetics of diclofenac potassium when used as a single active compound with diclofenac potassium in combination with famotidine and/or potassium bicarbonate. In this experimental study, the aim was to observe how the addition of potassium bicarbonate to diclofenac and famotidine would change the pharmacokinetic properties of diclofenac potassium when diclofenac potassium is given alone or in combination with famotidine and/or potassium bicarbonate.
Male Wistar rats (240-260 g) were used in the study. The rats were maintained in an air-conditioned animals quarter at a temperature of 22±2° C. and a relative humidity of 50±10%. Food and water were allowed ad libitum. The animals were acclimatized to the facilities for five days, and then fasted with free access to water for 12 h prior to the experiment. All the animals were housed under similar conditions.
Bioavailability and pharmacokinetics of diclofenac were studied in all the normal state of rats following an oral administration of 1 mg/kg diclofenac potassium, 0.4 mg/kg famotidine and 0.72 mg/kg or 0.36 mg/kg potassium bicarbonate in different occasions. Each rat was further subjected to similar studies after administration of diclofenac potassium and/or diclofenac in combination with famotidine. A total of 30 rats were used in the study divided into 5 groups, each group was administered; diclofenac alone, or 4 different combinations of diclofenac as outlined below.
Six male and/or female rats per group were lavaged with 1 mg/kg Diclofenac potassium and combinations at a dosing volume of 2 ml/kg. Blood (0.2 ml) was taken from the tail vein prior to administration of test substances (0 h) and after 0.083, 0.167, 0.25, 0.5, 1, 2, 4, 8 and 12 h.
Blood samples were collected in tubes containing %5 Na2-EDTA and kept on ice until 50 ul dichloromethane was added and they were centrifuged at 7000×g for 5 min at 4° C. and supernatants were collected for LC/MSMS analysis.

Cmax: 1260 ng/mL
Tmax of diclofenac: 15 min
AUC(0-t) (1 mg/kg): 7510 ng·h/mL
Cmax (1 mg/kg): 1262 ± 0.048 ng/mL
Tmax (1 mg/kg): 15 min
Blood Concentrations of Diclofenac Potassium (1 mg/kg, 0.083 h): 1.096 ± 0.054
Blood Concentrations of Diclofenac Potassium (1 mg/kg, 0.25 h): 1.262 ± 0.048
Blood Concentrations of Diclofenac Potassium (1 mg/kg, 0.5 h): 1.078 ± 0.137
Blood Concentrations of Diclofenac Potassium (1 mg/kg, 1 h): 0.943 ± 0.015
Blood Concentrations of Diclofenac Potassium (1 mg/kg, 2 h): 0.600 ± 0.159
Blood Concentrations of Diclofenac Potassium (1 mg/kg, 4 h): 0.600 ± 0.015
Blood Concentrations of Diclofenac Potassium (1 mg/kg, 8 h): 0.578 ± 0.033
Blood Concentrations of Diclofenac Potassium (1 mg/kg, 12 h): 0.486 ± 0.092
SMILES: O=C(O)Cc1ccccc1Nc1c(Cl)cccc1Cl [Diclofenac-K, 2[(2,6-dichlorophenyl)amino]benzeneacetic acid]
